One assay has as its system APP/PS1 transgenic mice. Put plainly: TUNEL staining of brain sections. The conditions noted are these: B14 10, 20, 40 mg/kg i.p. every other day. In kind it is in vivo. From the text:
Five months old male APP/PS1 mice, weighing 25–33 g, were purchased from Guangdong Medical Laboratory Animal Center and housed in the Laboratory Animal Center of Sun Yat-sen University (Guangzhou, China) for experimentation. All procedures were approved by the Animal Care and Use Committee of Sun Yat-sen University and complied with legal requirements and national guidelines for the care and maintenance of laboratory animals (Approval No. SYSU-IACUC-2024-002032). The mice were housed in a specific pathogen-free environment with a controlled temperature of 22 ± 1 °C and a 12-h dark/light cycle. The mice were fed with a standard diet, and 30 mice were randomly divided into 6 groups (N = 5). Compound B14 was dissolved in saline and administered at doses of 10, 20, or 40 mg/kg. APP/PS1 male mice were grown until 6 months of age, and then injected intraperitoneally with compound B14 every other day for 60 days. Behavioral experiments were then conducted, and tissue specimens were collected for biochemical analysis.

In assay [1] the target is T1, Aβ1-42 (Homo sapiens, UniProt P05067).
T1 construct: Aβ1-42 was purchased from Gill Biochemicals Ltd (Shanghai, China); purchased Gill Biochemicals Ltd (Shanghai, China)
T1 sequence (P05067 672-713 limits assumed): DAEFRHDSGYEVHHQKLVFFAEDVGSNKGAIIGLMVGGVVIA
Put plainly: Transmission electron microscopy of Aβ1-42 fibrils. In kind it is biochemical. As to conditions: 20 μM compound, 72 h. On the procedure:
TEM experiment was carried out following a published method without significant modification, and the Aβ1-42 solution (100 μM) was co-incubated with B14 (20 μM) or Curcumin (20 μM) at 37 °C for 72h. The samples were dropped to a carbon-coated grid, stained with 2 % phosphotungstic acid, and then dried at room temperature. The morphology of Aβ1-42 fiber was observed on a JEM-1200EX II transmission electron microscope (Jeol, Japan).
The Aβ1-42 solution (100 μM) was co-incubated with B14 solution (20 μM) or Curcumin (20 μM) at 37 °C for 72h. The samples were dropped to a carbon-coated grid, stained with 2% phosphotungstic acid, and then dried at room temperature. The morphology of Aβ1-42 fiber was observed on a JEM-1200EX II transmission electron microscope (Jeol, Japan).

The subject of another assay is BCL-2 G4. Put plainly: ESI-MS with BCL-2 G4. The class given is binding. As to conditions: pH 7.4. As for the experimental part: The oligomer for BCL-2 promoter […] at concentration of 5 μM was annealed in 1 × BPES buffer with or without 20 μM B14 at 95 °C for 5 min, followed by cooling to room temperature. Mass spectrometry signals were collected by using ESI-MS (Thermo, LCQ DECA Plus XP) and analyzed by using pro-mass.
Figure S5. ESI-MS, UV, CD, and EMSA experiments were performed to examine the effect of B14 on BCL-2 promoter i-motif and G-quadruplex. (A) ESI-MS experiment for oligomer BCL-2 G4 alone, which was annealed in 1 × BPES buffer at pH 7.4. (B) ESI-MS experiment for above oligomer BCL-2 G4 with addition of B14 in 1 × BPES buffer at pH 7.4. (C-D) TO displacement with increasing amount of oligomer BCL-2 i-motif annealed in 1 X BPES buffer at pH 5.5 in the presence of 20 equivalents of B14 or A22. (E) EMSA experiment was performed for the effect of B14 on inducing BCL-2 i-motif formation. The lanes from left to right were as follow: BCL-2 i-motif alone at pH 5.5; BCL-2 i-motif alone at pH 6.2; BCL-2 i-motif plus 1 eq B14 at pH 6.2; BCL-2 i-motif plus 5 eq B14 at pH 6.2; BCL-2 i-motif plus 10 eq B14 at pH 6.2. (F) CD experiment was performed to study the interaction of B14 or A22 with BCL-2 promoter i-motif.

Assay [2] concerns F-BCL-2(G4) (DNA, G4) AGGGGCGGGCGCGGGAGGAAGGGGGCGGGAGCGGGGCTG
The assay is described as follows: MST. The conditions noted are these: K+ 100 mM; 50 mM Tris-HCl, pH 7.4; highest B14 concentration 50 μM.

Assay [3] concerns BCL-2, BAX, Cyto-C, Cleaved-caspase 9, Cleaved-caspase 3 in hippocampus of APP/PS1 mice. The assay is described as follows: Western blot and immunofluorescence of apoptosis related factors in hippocampus. The class given is in vivo. As to conditions: B14 10, 20, 40 mg/kg i.p. every other day. On the procedure: Protein samples (25–40 μg) were separated using 10 % SDS-PAGE and subsequently transferred onto PVDF membranes (0.22 μm, Servicebio, Guangzhou, China) via electro transfer. Following blocking with TBST solution (Servicebio, Guangzhou, China) containing 5 % BSA (Solarbio, Beijing, China) for approximately 60 min at room temperature, the membrane was exposed to various primary antibodies overnight at 4 °C on a rotating shaker. Then, the membranes were incubated with HRP-conjugated secondary antibody (Affinity, Changzhou, China) for 2 h. Protein bands were then detected using an ECL kit. The signal intensity of each target protein was quantified using Image J 1.8.0 software (Bio-Rad Laboratories, California, USA).
Five months old male APP/PS1 mice, weighing 25–33 g, were purchased from Guangdong Medical Laboratory Animal Center and housed in the Laboratory Animal Center of Sun Yat-sen University (Guangzhou, China) for experimentation. All procedures were approved by the Animal Care and Use Committee of Sun Yat-sen University and complied with legal requirements and national guidelines for the care and maintenance of laboratory animals (Approval No. SYSU-IACUC-2024-002032). The mice were housed in a specific pathogen-free environment with a controlled temperature of 22 ± 1 °C and a 12-h dark/light cycle. […]

For assay [4], the system named is BCL-2 gene transcription in SH-SY5Y cells. Put plainly: Real-time RT-PCR in 25 μM Aβ1-42 cell model, BCL-2. In kind it is cell-based, human. On the procedure: SH-SY5Y cells were treated with or without B14, and total RNA was subsequently isolated and purified. Reverse transcription was performed using a cDNA synthesis kit. The relative transcription levels of the genes were evaluated through quantitative real-time PCR using the SYBR Green-based method, as described in the Supplementary Date. Details regarding the primer sequences and the raw data can be found in Table S7 and Table S8.
^a -∆∆Ct = -[(Ct value of genes in treated sample - Ct value of genes in control) - (Ct value of β-actin in treated sample - Ct value of β-actin in control)]. ^b F: The relative expression fold.
Experiment 2: The Ct values of BCL-2 and Bax in 25 μM Aβ1-42 model with different concentration of B14.
Total RNA was extracted from cells and mice liver tissue using RNAiso Plus (Takara, 9109, Japan). Following sample homogenization, chloroform was added, and the solution was allowed to have phase separation into an upper aqueous layer (containing RNA), an interphase, and a lower organic layer (containing DNA and proteins). RNA was precipitated from the aqueous phase using isopropanol, while DNA was precipitated from the aqueous-organic interphase using ethanol. Complementary DNA (cDNA) was synthesized using the One-Step RT-PCR Kit (Takara, Cat#639503, Japan).
Quantitative real-time polymerase chain reaction (qRT-PCR) was performed using the 2× RealStar SYBR Mixture (GenStar, Cat# A301-10, Guangzhou, China) on a LightCycler 480 II real-time PCR system (Roche, USA). Data were analyzed using the 2^−ΔΔCt method. Actin served as the internal control, and relative mRNA levels were normalized accordingly.

Assay [5] addresses T1, Aβ1-42. Put plainly: Dot blot of Aβ1-42 fibril aggregation. As to conditions: 20 μM compound, 24 h. In kind it is biochemical.
Procedure: After incubation at 37 °C for 24 h, 10 μL aliquots of 20 μM Aβ1-42 reaction mixtures were spotted onto nitrocellulose membranes. Membranes were blocked for 2 h with 5 % non-fat milk in TBS. After washing, membranes were incubated with the anti-Aβ fibril antibody (1:1,000, CST, USA) dissolved in TBS containing 3 % bovine serum albumin (BSA, Beyotime, Jiangsu, China) and 0.01 % Tween-20 (Solarbio, Beijing, China), and developed using an alkaline-phosphatase anti-rabbit secondary antibody (1:5,000, Proteintech, China). The bands were then detected using an enhanced chemiluminescence (ECL) kit (Millipore, USA).
After incubation at 37 °C for 24h, 10 μL aliquots of 20 μM Aβ1-42 reactions were spotted onto nitrocellulose membranes. The membranes were blocked for 2 h with 5% non-fat milk in TBS. After washing, the membranes were incubated with the anti-Aβ fibril antibody (1:1000 dilution) dissolved in TBS containing 3% BSA and 0.01% Tween-20, and then developed using an alkaline-phosphatase antirabbit secondary antibody (1:5000 dilution). Invitrogen's Western Breeze Chemiluminescent kit was used to visualize the protein dots, and these dots were imaged using a FUJIFILM Luminescent Image Analyzer LAS-1000CH.

Broadly, the KD is the free concentration of one partner at which half of the binding sites on the other are occupied at equilibrium, for simple one-to-one binding. Higher therefore signals lower affinity. In the case of `O=C(CCN1CCOCC1)Nc1ccc2c(c1)c(=O)c1cc(NC(=O)CCN3CCOCC3)ccc1n2-c1ccc2occc2c1` [Compound B14], the “proportion of TUNEL-positive neurons” value in the assay with APP/PS1 transgenic mice is on record as “significantly decreased the proportion of TUNEL-positive neurons”. The “ultrastructure of Aβ1-42 fibers (TEM)” value at Aβ1-42 [1] is “formation of protofibrils or amorphous oligomers was significantly reduced”. The “adduct peak in ESI-MS” value in the assay with BCL-2 G4 is “no corresponding binding peak appeared”. For the same compound, the KD in assay [2] is 59.75 µM. Also, the “expression level of BCL-2 in hippocampus” value in assay [3] is reported as “effectively increased the expression level of BCL-2”. Moreover, the “expression levels of pro-apoptotic factors in hippocampus” value in assay [3] is “decreased the expression levels of BAX, Cyto-C, Cleaved-caspase 9 and Cleaved-caspase 3”. The “-∆∆Ct, BCL-2” value is listed as -0.05 in assay [4] (25 μM Aβ1-42 + 6.25 μM B14), -0.48 in assay [4] (25 μM Aβ1-42 + 12.5 μM B14) and -0.82 in assay [4] (25 μM Aβ1-42 + 25 μM B14). Besides, the “F = 2^-∆∆Ct (relative expression fold), BCL-2” value in assay [4] (25 μM Aβ1-42 + 6.25 μM B14) turned out to be 1.04; in assay [4] (25 μM Aβ1-42 + 12.5 μM B14), 1.40; in assay [4] (25 μM Aβ1-42 + 25 μM B14), 1.76. The “formation of Aβ fibers (dot blot)” value at Aβ1-42 [5] is “reduced the formation of Aβ fibers and greatly decreased Aβ self-aggregation”.

(Values after article PMC11982498 (Redox Biology, 2025).)
